# Measurements as given in the supplement of paper PMC11208160.
# Assay: recombinant UMI read abundance after kanamycin selection (control-corrected) (log10(CPM+1)); higher = more efficient recombination; extreme values may be limits of the assay; sequences stand for … in AGTGCAGAGAAAATCGGCCAGTTTTCTCTGCCTGCAGTCCGCATGCCGTGGGACCCCTTGGGTTCTAACCTGTTGCCTAGATTTATGCAGCGGACTGCCTTTCTCCCAAAGTGATAAACCGG…AGGTTGGTTTCACT; site = the 11-nt donor
# How it was run: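 Reported values are log10(CPM+1) from a pooled Escherichia coli screen of donor and donor-binding-loop pairs for the IS621 bridge recombinase. Selection used IPTG (0.07 mM) plus kanamycin, against unselected plating, each in two replicates. Recombinant UMIs were amplified across the donor–target junction, sequenced, converted to CPM, averaged over replicates and scaled by control-derived factors.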
# 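Further: IS621 bridge recombinase in Escherichia coli cells against a fixed T5 target plasmid.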
row,Sequence,recombinant UMI read abundance (log10)
1,GCGCGCACATGGACCGGTTTTCCCGGTAATCCGTATTTGCT (site GCGCGCACTAG),2.68
2,GCGCTGACATGGACCGGTTTTCCCGGTAATCCGTATTTGAG (site GCGCTGACTCT),1.62
3,GCGGAAACATGGACCGGTTTTCCCGGTAATCCGTATTTGCT (site GCGAAAACTAG),0
4,GCGGAAACATGGACCGGTTTTCCCGGTAATCCGTATTTGCT (site GCGCAAACTAG),1.5
5,GCGGAAACATGGACCGGTTTTCCCGGTAATCCGTATTTGCT (site GCGGAAACTAG),2.19
6,GCGGAAACATGGACCGGTTTTCCCGGTAATCCGTATTTGCT (site GCGTAAACTAG),1.86
7,GCGGAGGCATGGACCGGTTTTCCCGGTAATCCGTATTTGAA (site GCGGAGGCTTT),1.91
8,GCGGTAACATGGACCGGTTTTCCCGGTAATCCGTATTTGAT (site GCGGTAACTAT),2.46
9,GCGTAAACATGGACCGGTTTTCCCGGTAATCCGTATTTGCT (site GCGAAAACTAG),0
10,GCGTAAACATGGACCGGTTTTCCCGGTAATCCGTATTTGCT (site GCGCAAACTAG),1.82
11,GCGTAAACATGGACCGGTTTTCCCGGTAATCCGTATTTGCT (site GCGGAAACTAG),0.309
12,GCGTAAACATGGACCGGTTTTCCCGGTAATCCGTATTTGCT (site GCGTAAACTAG),2.73
13,GCGTACCCATGGACCGGTTTTCCCGGTAATCCGTATTTGAG (site GCGTACCCTCT),0.023
14,GCGTACTCATGGACCGGTTTTCCCGGTAATCCGTATTTGAC (site GCGTACTCTGT),3.44
15,GCGTCAACATGGACCGGTTTTCCCGGTAATCCGTATTTGGT (site GCGTCAACTAC),0.129
16,GCGTTAGCATGGACCGGTTTTCCCGGTAATCCGTATTTGTG (site ACGTTAGCTCA),0.84
17,GCGTTAGCATGGACCGGTTTTCCCGGTAATCCGTATTTGTG (site CCGTTAGCTCA),0.885
18,GCGTTAGCATGGACCGGTTTTCCCGGTAATCCGTATTTGTG (site GCGTTAGCTCA),1.75
19,GCGTTAGCATGGACCGGTTTTCCCGGTAATCCGTATTTGTG (site TCGTTAGCTCA),0.669

row,Sequence,recombinant UMI read abundance (log10)
1,GCGTTTCCATGGACCGGTTTTCCCGGTAATCCGTATTTGCT (site GCGTTTCCTAG),1.81
2,GCTAAAGCATGGACCGGTTTTCCCGGTAATCCGTATTTGAT (site ACTAAAGCTAT),0.901
3,GCTAAAGCATGGACCGGTTTTCCCGGTAATCCGTATTTGAT (site CCTAAAGCTAT),1.04
4,GCTAAAGCATGGACCGGTTTTCCCGGTAATCCGTATTTGAT (site GCTAAAGCTAT),1.92
5,GCTAAAGCATGGACCGGTTTTCCCGGTAATCCGTATTTGAT (site TCTAAAGCTAT),0.378
6,GCTAATACATGGACCGGTTTTCCCGGTAATCCGTATTTGGC (site ACTAATACTGC),0
7,GCTAATACATGGACCGGTTTTCCCGGTAATCCGTATTTGGC (site CCTAATACTGC),0.772
8,GCTAATACATGGACCGGTTTTCCCGGTAATCCGTATTTGGC (site GCTAATACTGC),0.0276
9,GCTAATACATGGACCGGTTTTCCCGGTAATCCGTATTTGGC (site TCTAATACTGC),0.548
10,GCTACAACATGGACCGGTTTTCCCGGTAATCCGTATTTGAG (site GCTACAACTCT),0.921
11,GCTACGCCATGGACCGGTTTTCCCGGTAATCCGTATTTGCG (site GCTACGCCTCG),0.00779
12,GCTACTGCATGGACCGGTTTTCCCGGTAATCCGTATTTGAG (site GCTACTGCTCT),1.49
13,GCTACTGCATGGACCGGTTTTCCCGGTAATCCGTATTTGCC (site ACTACTGCTGG),1.44
14,GCTACTGCATGGACCGGTTTTCCCGGTAATCCGTATTTGCC (site CCTACTGCTGG),0.983
15,GCTACTGCATGGACCGGTTTTCCCGGTAATCCGTATTTGCC (site GATACTGCTGG),0
16,GCTACTGCATGGACCGGTTTTCCCGGTAATCCGTATTTGCC (site GCAACTGCTGG),0
17,GCTACTGCATGGACCGGTTTTCCCGGTAATCCGTATTTGCC (site GCCACTGCTGG),0.445
18,GCTACTGCATGGACCGGTTTTCCCGGTAATCCGTATTTGCC (site GCGACTGCTGG),0
19,GCTACTGCATGGACCGGTTTTCCCGGTAATCCGTATTTGCC (site GCTAATGCTGG),0

row,Sequence,recombinant UMI read abundance (log10)
1,GCTACTGCATGGACCGGTTTTCCCGGTAATCCGTATTTGCC (site GCTACAGCTGG),0
2,GCTACTGCATGGACCGGTTTTCCCGGTAATCCGTATTTGCC (site GCTACCGCTGG),0
3,GCTACTGCATGGACCGGTTTTCCCGGTAATCCGTATTTGCC (site GCTACGGCTGG),0
4,GCTACTGCATGGACCGGTTTTCCCGGTAATCCGTATTTGCC (site GCTACTACTGG),1.21
5,GCTACTGCATGGACCGGTTTTCCCGGTAATCCGTATTTGCC (site GCTACTCCTGG),0
6,GCTACTGCATGGACCGGTTTTCCCGGTAATCCGTATTTGCC (site GCTACTGCTAG),0.00694
7,GCTACTGCATGGACCGGTTTTCCCGGTAATCCGTATTTGCC (site GCTACTGCTCG),0
8,GCTACTGCATGGACCGGTTTTCCCGGTAATCCGTATTTGCC (site GCTACTGCTGA),0
9,GCTACTGCATGGACCGGTTTTCCCGGTAATCCGTATTTGCC (site GCTACTGCTGC),0
10,GCTACTGCATGGACCGGTTTTCCCGGTAATCCGTATTTGCC (site GCTACTGCTGG),1.11
11,GCTACTGCATGGACCGGTTTTCCCGGTAATCCGTATTTGCC (site GCTACTGCTGT),0
12,GCTACTGCATGGACCGGTTTTCCCGGTAATCCGTATTTGCC (site GCTACTGCTTG),0.255
13,GCTACTGCATGGACCGGTTTTCCCGGTAATCCGTATTTGCC (site GCTACTTCTGG),0
14,GCTACTGCATGGACCGGTTTTCCCGGTAATCCGTATTTGCC (site GCTAGTGCTGG),0
15,GCTACTGCATGGACCGGTTTTCCCGGTAATCCGTATTTGCC (site GCTATTGCTGG),0
16,GCTACTGCATGGACCGGTTTTCCCGGTAATCCGTATTTGCC (site GCTCCTGCTGG),0
17,GCTACTGCATGGACCGGTTTTCCCGGTAATCCGTATTTGCC (site GCTGCTGCTGG),0.274
18,GCTACTGCATGGACCGGTTTTCCCGGTAATCCGTATTTGCC (site GCTTCTGCTGG),0.74
19,GCTACTGCATGGACCGGTTTTCCCGGTAATCCGTATTTGCC (site GGTACTGCTGG),1.03
